Patent publication US20080085889A1, “Amidomethyl-Substituted 1-(Carboxyalkyl) Cyclopentyl-Carbonylamino-Benzazepine-N-Acetic Acid Compounds, Process and Intermediate Products for Their Preparation and Pharmaceutical Compositions Containing Them” (SOLVAY PHARMACEUTICALS GmbH, priority 2003, published 2008)

What was measured:
[1] = target: T1, soluble, human recombinant NEP (Homo sapiens, UniProt P08473); experiment: In-vitro investigation of the NEP inhibitory action (fluorescence-quenched Big-ET-1 analogue, HPLC); type: biochemical
T1 construct: soluble, human recombinant NEP; purchased Prof; Crine, University of Montreal, Canada
Experimental: 1. In-Vitro Investigation of the NEP Inhibitory Action of the Substances
In this test, the measure of the inhibitory activity of the substances which was determined was their IC50 value. The IC50 value of a test substance having enzyme-inhibitory activity is that concentration of the test substance at which 50% of the enzymatic activity of the NEP is blocked.
70 μl test buffer, 10 μl enzyme working solution and 10 μl test substance solution were mixed in an Eppendorf vessel and preincubated at 37° C. for 15 minutes (=min.). Then 10 μl substrate stock solution was added and the test batch was incubated for 60 minutes at 37° C. The enzymatic reaction was then ended by 5-minutes' heating to 95° C. After centrifugation (Heraeus Biofuge B, 3 min.), the liquid supernatant was investigated by HPLC in accordance with the following specifications.
The substrate was separated from cleavage products by means of reversed-phase HPLC (CC 125/4 Nucleosil 300/5 C18 RP column with CC 8/4 Nucleosil 100/5 C18 precolumn, from Macherey-Nagel, Düren, Germany). For this, 60 μl of the test mixture was injected into the HPLC sample injection point and the column was then eluted at a flow rate of 1 ml/min with the following gradient:
Mobile Phase B: 100% acetonitrile+0.5M H3PO4
All the peptides were detected by absorption at 214 nm and by fluorescence with an excitation wavelength of 328 nm and an emission wavelength of 393 nm.
Upon enzymatic cleavage of the peptide, the fluorophore (=Mca) and the quencher end up in different peptide fragments, which reduces the effectiveness of the quench. […] The increasing fluorescence signal (corresponds to the area, A) of the HPLC peak of the peptide with the non-quenched Mca fluorophore is used for the further calculations. This signal was compared for samples with (=Ainhib) and without (=Acontrol) test substance of Formula I, and the value “% inhibition” was calculated on the basis of the respective peak areas according to the following formula: % inhibition=100*(1−Ainhib/Acontrol)
All the samples were measured in duplicates and average values were calculated therefrom. A standard inhibitor (10 nM thiorphan) and a solvent control (0.1% DMSO) were likewise measured as quality controls on each run. In this test model the test substances of Formula I listed in the following Table 1 had the IC50 values given below: […]

[2] = test system: formation of ET-1 from Big-ET-1; experiment: In vivo inhibition of the Big-ET-1-induced blood pressure increase in anaesthetised rats, i.v. single dose; set-up: species or system Rats (Sprague-Dawley); conditions: Rattus norvegicus, iv, 5 min before 0.5 nmol/kg Big-ET-1, negative values indicate inhibition, read-out: % substance-related inhibition of the maximum Big-ET effect on SAP vs. control; for change in vivo at 10 µmol/kg: 10 μmol/kg; for change in vivo at 3 µmol/kg: 3 μmol/kg
From the text: 3. In Vivo Investigation of the Inhibitory Action of the Substances on the Formation of ET-1 from Big-ET-1 in Rats
ET-1 is an endogenous substance with strong vasoconstrictive effect. An increase in the ET-1 level results in an increase in blood pressure. Upon infusion of Big-ET-1, an increase in blood pressure takes place to the extent that ET-1 is produced therefrom by enzyme-catalysed cleavage of Big-ET-1. As a measurement of the enzyme-inhibiting action of the substances, their inhibitory action on the increase in blood pressure induced by infusion of Big-ET-1 was determined.
Rats (Sprague-Dawley, CRLD=Charles River) were anaesthetised with 1 ml/kg Rompun/Ketavet 1:1. A pressure transducer (Statham) was inserted into the carotid artery to measure blood pressure. One jugular vein was cannulated for administering the substance, and the other for administering Big-ET-1. After a 20-minute equilibration phase, the rats were administered the corresponding test substance of Formula I at a dose of as a rule 10 μmol/kg (if not stated otherwise), or a vehicle. Five minutes later, 0.5 nmol/kg Big-ET-1 was infused over a period of one minute. The systolic (SAP=systolic arterial pressure) and the diastolic (DAP=diastolic arterial pressure) blood pressure and the heart rate were each measured before administration of the substance, then immediately before administration of Big-ET and in each case every five minutes over a period of 30 minutes after Big-ET administration using the pressure transducer in known manner. The maximum Big-ET-induced increase in blood pressure and the maximum lowering of heart rate were calculated from the measured values as the difference between the value measured at the moment of maximum development of the Big-ET action (typically after 5 min.) and the value measured before Big-ET infusion. Furthermore, the integral of the blood pressure curve under the influence of Big-ET-1 was determined over 30 minutes (AUC=area under the curve).
The percentage inhibition of the maximum Big-ET-1 effect on the systolic arterial blood pressure (SAP) after i.v. administration of the test substances compared with administration of a vehicle is set forth in the following Table 3a:
Data given in table 3a as negative values indicate an inhibitory effect.

[3] = target: T2, His6-tagged hSEP ectodomain (Homo sapiens, UniProt Q495T6); experiment: In vitro investigation of the hSEP-inhibitory action (fluorescence-quenched Big-ET-1 analogue, HPLC); type: biochemical
T2 construct: His6-tagged hSEP ectodomain; His6; purchased Innogenetics, Ghent, Belgium
T2 sequence (Q495T6 49-779 limits assumed): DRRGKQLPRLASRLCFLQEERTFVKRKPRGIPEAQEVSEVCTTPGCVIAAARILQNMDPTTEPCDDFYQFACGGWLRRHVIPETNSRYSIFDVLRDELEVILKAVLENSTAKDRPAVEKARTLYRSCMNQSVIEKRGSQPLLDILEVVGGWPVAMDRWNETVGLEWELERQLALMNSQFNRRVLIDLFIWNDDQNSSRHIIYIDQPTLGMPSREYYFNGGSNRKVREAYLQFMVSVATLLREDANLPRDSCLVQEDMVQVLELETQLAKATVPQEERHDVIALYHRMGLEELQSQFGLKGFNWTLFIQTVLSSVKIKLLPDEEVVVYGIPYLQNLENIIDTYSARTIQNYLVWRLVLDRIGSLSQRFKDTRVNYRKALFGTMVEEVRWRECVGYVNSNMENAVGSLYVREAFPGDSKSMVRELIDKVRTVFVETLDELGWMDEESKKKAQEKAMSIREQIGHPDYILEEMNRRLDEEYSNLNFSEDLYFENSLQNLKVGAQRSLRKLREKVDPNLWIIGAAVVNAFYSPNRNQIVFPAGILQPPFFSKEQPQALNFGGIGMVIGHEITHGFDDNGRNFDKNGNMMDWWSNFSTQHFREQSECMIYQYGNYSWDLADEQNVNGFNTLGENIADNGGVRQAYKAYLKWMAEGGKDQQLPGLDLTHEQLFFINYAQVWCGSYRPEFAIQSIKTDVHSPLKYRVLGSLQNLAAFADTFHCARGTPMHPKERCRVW
Experimental: 2. In Vitro Investigation of the hSEP-Inhibitory Action of the Substances
In this test, the measure of the inhibitory activity of the substances which was determined was their IC50 value. The IC50 value of a test substance having enzyme-inhibitory activity is that concentration of the test substance at which 50% of the enzymatic activity of the hSEP is blocked.
The test and the HPLC procedure were carried out analogously to the manner set forth above for determining the in vitro inhibitory action of the test substances on NEP. 10 nM phosphoramidon served as standard inhibitor in the HPLC procedure. In this test model the test substances of Formula I listed in the following Table 2 had the IC50 values given below: […]

T1 sequence (P08473 52-750 limits assumed): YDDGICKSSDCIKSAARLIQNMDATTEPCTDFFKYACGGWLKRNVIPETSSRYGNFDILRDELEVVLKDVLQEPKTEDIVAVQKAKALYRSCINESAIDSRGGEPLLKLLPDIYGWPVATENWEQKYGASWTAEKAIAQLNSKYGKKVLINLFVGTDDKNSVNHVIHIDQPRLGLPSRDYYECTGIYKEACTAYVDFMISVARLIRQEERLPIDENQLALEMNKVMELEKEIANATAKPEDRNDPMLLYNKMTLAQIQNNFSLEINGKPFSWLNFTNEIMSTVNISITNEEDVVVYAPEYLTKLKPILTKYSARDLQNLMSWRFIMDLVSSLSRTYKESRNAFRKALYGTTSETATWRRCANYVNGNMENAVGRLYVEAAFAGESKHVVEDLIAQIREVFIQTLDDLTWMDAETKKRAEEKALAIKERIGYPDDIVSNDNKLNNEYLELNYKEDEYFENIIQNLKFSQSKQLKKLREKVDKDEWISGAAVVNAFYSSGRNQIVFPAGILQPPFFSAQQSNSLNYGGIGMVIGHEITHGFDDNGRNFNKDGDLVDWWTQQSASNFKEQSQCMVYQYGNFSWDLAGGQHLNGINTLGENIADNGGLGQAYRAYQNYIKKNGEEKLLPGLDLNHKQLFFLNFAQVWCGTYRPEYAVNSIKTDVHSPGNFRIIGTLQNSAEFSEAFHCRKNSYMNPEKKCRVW

| IC50 [1] [nM] | IC50 [3] [nM] | SMILES | change in vivo at 10 µmol/kg [2] [%] | change in vivo at 3 µmol/kg [2] [%] |
| --- | --- | --- | --- | --- |
| 13.8 | – | CC(C)N(C)C(=O)CC(CC1(C(=O)NC2CCc3ccccc3N(CC(=O)O)C2=O)CCCC1)C(=O)O (racemic) [Example 32, 2-{[1-({[1-(carboxymethyl)-2-oxo-2,3,4,5-tetrahydro-1H-1-benzazepin-3-yl]amino}carbonyl)cyclopentyl]methyl}-4-[isopropyl(methyl)amino]-4-oxobutanoic acid] | -60 | – |
| – | – | CC(C)[C@H](N)C(=O)OC1CCN(C(=O)CC(CC2(C(=O)N[C@H]3CCc4ccccc4N(CC(=O)O)C3=O)CCCC2)C(=O)O)CC1 (stereo partly drawn) [Example 70, 2-{[1-({[1-(carboxymethyl)-2-oxo-2,3,4,5-tetrahydro-1H-1-benzazepin-3-yl]amino}carbonyl)cyclopentyl]methyl}-4-oxo-4-[4-(L-valyloxy)piperidin-1-yl]butanoic acid] | -77 | – |
| – | – | CN(C)C(=O)CC(CC1(C(=O)NC2CCc3ccccc3N(CC(=O)O)C2=O)CCCC1)C(=O)O (racemic) [Example 54, 2-{[1-({[1-(carboxymethyl)-2-oxo-2,3,4,5-tetrahydro-1H-1-benzazepin-3-yl]amino}carbonyl)cyclopentyl]methyl}-4-(dimethylamino)-4-oxobutanoic acid] | -87 | – |
| 7.8 | 26.8 | O=C(O)CN1C(=O)[C@@H](NC(=O)C2(CC(CC(=O)NCc3ccccc3)C(=O)O)CCCC2)CCc2ccccc21 (mixture of isomers) [Example 27] | – | – |
| – | – | CN(C)CCCN(C)C(=O)CC(CC1(C(=O)NC2CCc3ccccc3N(CC(=O)O)C2=O)CCCC1)C(=O)O (racemic) [Example 60, 2-[(1-{[1-(carboxymethyl)-2-oxo-2,3,4,5-tetrahydro-1H-1-benzazepin-3-yl]carbamoyl}cyclopentyl)methyl]-4-{[3-(dimethylamino)propyl](methyl)amino}-4-oxobutanoic acid] | -70 | – |
| – | 21.4 | CC(C)NC(=O)CC(CC1(C(=O)N[C@H]2CCc3ccccc3N(CC(=O)O)C2=O)CCCC1)C(=O)O (stereo partly drawn) [Example 2, 2-{[(3S)-1-({[1-(carboxymethyl)-2-oxo-2,3,4,5-tetrahydro-1H-1-benzazepin-3-yl]amino}-carbonyl)cyclopentyl]methyl}-4-(isopropylamino)-4-oxobutyric acid] | -53 | – |
| – | – | CC(C)NC(=O)CC(CC1(C(=O)N[C@H]2CCc3ccccc3N(CC(=O)O)C2=O)CCCC1)C(=O)OCc1ccc(Cl)cc1 (stereo partly drawn) [Example 14, {(3S)-3-[({1-[2-{[(4-chlorobenzyl)oxy]carbonyl}-4-(isopropylamino)-4-oxobutyl]-cyclopentyl}carbonyl)amino]-2-oxo-2,3,4,5-tetrahydro-1H-1-benzazepin-1-yl}acetic acid] | – | -59 |
| 3.2 | 2.9 | CN(CCO)C(=O)CC(CC1(C(=O)NC2CCc3ccccc3N(CC(=O)O)C2=O)CCCC1)C(=O)O (racemic) [Example 43, 2-{[1-({[1-(carboxymethyl)-2-oxo-2,3,4,5-tetrahydro-1H-1-benzazepin-3-yl]amino}carbonyl)cyclopentyl]methyl}-4-[(2-hydroxyethyl)(methyl)amino]-4-oxobutanoic acid] | – | – |
| – | 11.9 | CNC(=O)CC(CC1(C(=O)N[C@H]2CCc3ccccc3N(CC(=O)O)C2=O)CCCC1)C(=O)O (mixture of isomers) [Example 28] | – | – |
| – | 2.5 | CN(CCCO)C(=O)CC(CC1(C(=O)NC2CCc3ccccc3N(CC(=O)O)C2=O)CCCC1)C(=O)O (racemic) [Example 56, 2-{[1-({[1-(carboxymethyl)-2-oxo-2,3,4,5-tetrahydro-1H-1-benzazepin-3-yl]amino}carbonyl)cyclopentyl]methyl}-4-[(3-hydroxypropyl)(methyl)amino]-4-oxobutanoic acid] | – | – |
| 4 | 12.3 | COc1ccccc1CNC(=O)CC(CC1(C(=O)N[C@H]2CCc3ccccc3N(CC(=O)O)C2=O)CCCC1)C(=O)O (single isomer, unassigned) [Example 31] | – | – |
| 18.2 | 9.5 | O=C(O)CN1C(=O)[C@@H](NC(=O)C2(CC(CC(=O)N3CCOCC3)C(=O)O)CCCC2)CCc2ccccc21 (single isomer, unassigned) [Example 19] | – | – |
| 37 | 25.3 | O=C(O)CN1C(=O)[C@@H](NC(=O)C2(CC(CC(=O)NCCCO)C(=O)O)CCCC2)CCc2ccccc21 (stereo in doubt) [Example 10, (2″rel1″)-2-{[1-({[(3S)-1-(carboxymethyl)-2-oxo-2,3,4,5-tetrahydro-1H-1-benzazepin-3-yl]amino}carbonyl)cyclopentyl]methyl}-4-[(3-hydroxypropyl)amino]-4-oxobutyric acid] | – | – |
| – | – | CNCCCN(C)C(=O)CC(CC1(C(=O)NC2CCc3ccccc3N(CC(=O)O)C2=O)CCCC1)C(=O)O (racemic) [Example 77, 2-{[1-({[1-(carboxymethyl)-2-oxo-2,3,4,5-tetrahydro-1H-1-benzazepin-3-yl]amino}carbonyl)cyclopentyl]methyl}-4-{methyl[3-(methylamino)propyl]amino}-4-oxobutanoic acid] | – | -56 |
| 16.9 | – | CC(=O)CC(C)(C)NC(=O)CC(CC1(C(=O)N[C@H]2CCc3ccccc3N(CC(=O)O)C2=O)CCCC1)C(=O)O (mixture of isomers) [Example 21] | -43 | – |
